Data from patent publication US10281476B2, “Methods to identify modulators of RyR calcium channels” (REGENTS OF THE UNIVERSITY OF MINNESOTA, priority 2013, dated 2019).
Where no end group is shown, it is not given here.

What was measured:
[1] = test system: rat intact cardiomyocytes; test: Ca2+ transients in intact cardiomyocytes; format: cell-based; details: H2O2 50 μmol/L, dantrolene 1 μmol/L, 1 Hz
Description: (§1) Intact cardiomyocytes were loaded with Fluo-4 AM (5 μmol/L, Molecular Probes) for 15 min in NT solution (in mM): NaCl 140, KCl 4, MgCl2 1, CaCl2 2, glucose 10, HEPES 5, pH 7.4. Fluo-4 AM was excited at 488 nm and emission was recorded using a 500-530 nm bandpass filter. Ca^2+sparks were recorded after field stimulation at 1 Hz, and caffeine (10mmol/L) was rapidly perfused for assessing the SR Ca^2+content. Both Ca^2+sparks and SR Ca^2+content were recorded by using a laser scanning confocal microscope (RADIANCE2000™ MP, Bio-Rad, UK). Data were analyzed using SparkMaster, an automated analysis program that allows rapid and reliable spark analysis (Picht et al., J. Am J Physiol Cell Physiol. 2007;293:C1073-C1081). Spontaneous Ca^2+waves were recorded using a BZ9000 fluorescence digital microscope (Keyence, Japan), after 10 sec from field electric stimulation at 1,2,3,4 and 5 Hz, as described previously (Fukuda et al., Biochem Biophys Res Commun. 2014;448:1-7).
(§2) Oxidation induced by hydrogen peroxide (H2O2) is expected to activate SR Ca^2+ leak through RyR2 at diastolic [Ca]i (Wagner et al., Circ Res. 2011; 108:555-65; Yan et al., Cardiovasc Res. 2008; 77:432-41). We used line-scan images to measure the effects of 50 μM/L H2O2 on Ca^2+ spark frequency (CaSpF) and SR Ca^2+ content (evaluated via rapid caffeine application) in intact cardiomyocytes after 1 Hz electric field stimulation (FIG. 25). […] Thus H2O2 may enhance diastolic RyR2 channel opening. […] So CaSpF normalized to SR Ca^2+ content, was significant increase by H2O2 treatment of myocytes (FIG. 25C).

[2] = test system: rat intact cardiomyocytes; test: Ca2+ sparks and SR Ca2+ content in intact cardiomyocytes; format: cell-based; details: for Ca2+ spark Amplitude (ΔF/F0) / Ca2+ spark FDHM / Ca2+ spark FWHM: H2O2 50 μmol/L, dantrolene 1 μmol/L
Description: as §1, §2

[3] = molecular target: RyR2 (Rattus norvegicus, UniProt B0LPN4); test: F-DPc10 wash-in and washout kinetics at the myocyte Z-line; format: binding; parameters: endogenous in cells; host or cells: saponin-permeabilized adult rat ventricular myocytes; details: for effect on HF647-DPc10 wash-out kinetics: dantrolene 1 μmol/L, NF-DPc10 5 μmol/L
Description: To characterize DPc10-binding kinetics at Z-lines, we performed F-DPc10 wash-in (500 nmol/L) and washout experiments in permeabilized myocytes (FIG. 10A). Association (τwash-in=79.0±3.2 minutes) and dissociation (τwashout=149.8±4.4 minutes) were very slow compared with similar FKBP12.6 measurements (Guo et al., Circ Res, 2010; 106:1743-1752). From the wash-in/washout measurements, we calculated the association and dissociation rates constants, kon and koff, respectively, according to the following equation: kwash-in=[F-DPc10]kon+koff where kwashout≈koff and k=1/τ (s^−1). Accordingly, kon=202±20 (L mol^−1 s^−1) and koff=0.11±0.01 (10^−3 s^−1). […] We repeated this kinetic analysis using FRET between FKBP12.6 and DPc10, thus assessing the RyR2-specific DPc10 binding (FIG. 11A AND 11B). […] Based on these kinetic and affinity analyses, we infer that most of the Z-line-specific DPc10 binding is to RyR2. This is also consistent with Bmax, which would imply ≈1 DPc10 per RyR2 monomer.
We were intrigued by the slow kwash-in and conducted measurements to further understand the basis of this slow association. We tested the hypothesis that at resting [Ca^2+]i, DPc10 access to its RyR2 binding site is sterically hindered. If the N-terminal and central domains are tightly zipped to each other, then this interaction may occlude the DPc10-binding site on the RyR2, thus limiting the kon for DPc10. Alternatively, a limiting factor may be the rate at which DPc10 adopts a conformation that can bind to RyR2. To discern between these mechanisms, we determined the effect of [F-DPc10] on τwash-in. If the small fraction of DPc10 in the right conformation limits binding rate, then τwash-in should be faster at higher [F-DPc10], according to Equation. […] Instead, a 10-fold increase in [F-DPc10] had no significant effect on the τwash-in, although it did increase Bmax (FIG. 10B). The same was seen when using FKBP12.6-DPc10 FRET to assess τwash-in with 0.5 vs 5 μmol/L HF647-DPc10 (FIG. 12A AND 12B).
In our working model, under resting conditions, the RyR2 closed state may be stabilized by the interaction between the N-terminal and central domain in the zipped state. We hypothesized that conditions that promote RyR2 opening might enhance the rate of unzipping and accelerate τwash-in for F-DPc10. To test this, we first monitored F-DPc10 wash-in at elevated Ca^2+ (500 nmol/L). However, the 13% faster mean τwash-in was not significant (FIG. 13A). […] Thus, we preincubated myocytes with ryanodine (100 μmol/L) plus caffeine ([…]), which are known to favor long RyR2 openings and were reported to cause RyR2 domain unzipping in HEK293 cells (Liu et al., J Cell Sci, 2010; 123: 1775-1784). Ryanodine+caffeine produced a 21% faster τwash-in (P=0.002; FIG. 13B). However, the most significant effect was seen after presaturating RyR2 with NF-DPc10 (and then NF-DPc10 washout with F-DPc10 present; FIG. 13A). […] Assuming that koff of NF-DPc10 is the same as for F-DPc10 and using Equation, the kon is increased by 3.2-fold by unzipping as a result of prebinding of NF-DPc10 to the RyR2. Our working hypothesis is that the RyR2 open state may increase the probability of an RyR2 shifting to the unzipped state and may allow faster F-DPc10 wash-in. It also seems that the RyR2 open state (favored by caffeine-ryanodine) differs from the unzipped state (bound with DPc10).
Both FKBP12.6 and CaM bind to the RyR2 and can reduce channel opening, which might alter DPc10 binding. […] Neither CaM nor FKBP12.6 pretreatment altered M-line F-DPc10 fluorescence (FIG. 15). […] We infer that CaM stabilizes the domain interaction between N-terminal and central domains in the zipped state and thereby may reduce DPc10 access to its binding site. To test for direct CaM-DPc10 interaction, we performed control FRET measurements between donor-labeled CaM and acceptor-labeled DPc10 in solution in the absence of RyR. The maximal FRET efficiency (<1%) ruled out direct CaM-DPc10 interaction. […]

Sequence of RyR2 (B0LPN4 whole entry): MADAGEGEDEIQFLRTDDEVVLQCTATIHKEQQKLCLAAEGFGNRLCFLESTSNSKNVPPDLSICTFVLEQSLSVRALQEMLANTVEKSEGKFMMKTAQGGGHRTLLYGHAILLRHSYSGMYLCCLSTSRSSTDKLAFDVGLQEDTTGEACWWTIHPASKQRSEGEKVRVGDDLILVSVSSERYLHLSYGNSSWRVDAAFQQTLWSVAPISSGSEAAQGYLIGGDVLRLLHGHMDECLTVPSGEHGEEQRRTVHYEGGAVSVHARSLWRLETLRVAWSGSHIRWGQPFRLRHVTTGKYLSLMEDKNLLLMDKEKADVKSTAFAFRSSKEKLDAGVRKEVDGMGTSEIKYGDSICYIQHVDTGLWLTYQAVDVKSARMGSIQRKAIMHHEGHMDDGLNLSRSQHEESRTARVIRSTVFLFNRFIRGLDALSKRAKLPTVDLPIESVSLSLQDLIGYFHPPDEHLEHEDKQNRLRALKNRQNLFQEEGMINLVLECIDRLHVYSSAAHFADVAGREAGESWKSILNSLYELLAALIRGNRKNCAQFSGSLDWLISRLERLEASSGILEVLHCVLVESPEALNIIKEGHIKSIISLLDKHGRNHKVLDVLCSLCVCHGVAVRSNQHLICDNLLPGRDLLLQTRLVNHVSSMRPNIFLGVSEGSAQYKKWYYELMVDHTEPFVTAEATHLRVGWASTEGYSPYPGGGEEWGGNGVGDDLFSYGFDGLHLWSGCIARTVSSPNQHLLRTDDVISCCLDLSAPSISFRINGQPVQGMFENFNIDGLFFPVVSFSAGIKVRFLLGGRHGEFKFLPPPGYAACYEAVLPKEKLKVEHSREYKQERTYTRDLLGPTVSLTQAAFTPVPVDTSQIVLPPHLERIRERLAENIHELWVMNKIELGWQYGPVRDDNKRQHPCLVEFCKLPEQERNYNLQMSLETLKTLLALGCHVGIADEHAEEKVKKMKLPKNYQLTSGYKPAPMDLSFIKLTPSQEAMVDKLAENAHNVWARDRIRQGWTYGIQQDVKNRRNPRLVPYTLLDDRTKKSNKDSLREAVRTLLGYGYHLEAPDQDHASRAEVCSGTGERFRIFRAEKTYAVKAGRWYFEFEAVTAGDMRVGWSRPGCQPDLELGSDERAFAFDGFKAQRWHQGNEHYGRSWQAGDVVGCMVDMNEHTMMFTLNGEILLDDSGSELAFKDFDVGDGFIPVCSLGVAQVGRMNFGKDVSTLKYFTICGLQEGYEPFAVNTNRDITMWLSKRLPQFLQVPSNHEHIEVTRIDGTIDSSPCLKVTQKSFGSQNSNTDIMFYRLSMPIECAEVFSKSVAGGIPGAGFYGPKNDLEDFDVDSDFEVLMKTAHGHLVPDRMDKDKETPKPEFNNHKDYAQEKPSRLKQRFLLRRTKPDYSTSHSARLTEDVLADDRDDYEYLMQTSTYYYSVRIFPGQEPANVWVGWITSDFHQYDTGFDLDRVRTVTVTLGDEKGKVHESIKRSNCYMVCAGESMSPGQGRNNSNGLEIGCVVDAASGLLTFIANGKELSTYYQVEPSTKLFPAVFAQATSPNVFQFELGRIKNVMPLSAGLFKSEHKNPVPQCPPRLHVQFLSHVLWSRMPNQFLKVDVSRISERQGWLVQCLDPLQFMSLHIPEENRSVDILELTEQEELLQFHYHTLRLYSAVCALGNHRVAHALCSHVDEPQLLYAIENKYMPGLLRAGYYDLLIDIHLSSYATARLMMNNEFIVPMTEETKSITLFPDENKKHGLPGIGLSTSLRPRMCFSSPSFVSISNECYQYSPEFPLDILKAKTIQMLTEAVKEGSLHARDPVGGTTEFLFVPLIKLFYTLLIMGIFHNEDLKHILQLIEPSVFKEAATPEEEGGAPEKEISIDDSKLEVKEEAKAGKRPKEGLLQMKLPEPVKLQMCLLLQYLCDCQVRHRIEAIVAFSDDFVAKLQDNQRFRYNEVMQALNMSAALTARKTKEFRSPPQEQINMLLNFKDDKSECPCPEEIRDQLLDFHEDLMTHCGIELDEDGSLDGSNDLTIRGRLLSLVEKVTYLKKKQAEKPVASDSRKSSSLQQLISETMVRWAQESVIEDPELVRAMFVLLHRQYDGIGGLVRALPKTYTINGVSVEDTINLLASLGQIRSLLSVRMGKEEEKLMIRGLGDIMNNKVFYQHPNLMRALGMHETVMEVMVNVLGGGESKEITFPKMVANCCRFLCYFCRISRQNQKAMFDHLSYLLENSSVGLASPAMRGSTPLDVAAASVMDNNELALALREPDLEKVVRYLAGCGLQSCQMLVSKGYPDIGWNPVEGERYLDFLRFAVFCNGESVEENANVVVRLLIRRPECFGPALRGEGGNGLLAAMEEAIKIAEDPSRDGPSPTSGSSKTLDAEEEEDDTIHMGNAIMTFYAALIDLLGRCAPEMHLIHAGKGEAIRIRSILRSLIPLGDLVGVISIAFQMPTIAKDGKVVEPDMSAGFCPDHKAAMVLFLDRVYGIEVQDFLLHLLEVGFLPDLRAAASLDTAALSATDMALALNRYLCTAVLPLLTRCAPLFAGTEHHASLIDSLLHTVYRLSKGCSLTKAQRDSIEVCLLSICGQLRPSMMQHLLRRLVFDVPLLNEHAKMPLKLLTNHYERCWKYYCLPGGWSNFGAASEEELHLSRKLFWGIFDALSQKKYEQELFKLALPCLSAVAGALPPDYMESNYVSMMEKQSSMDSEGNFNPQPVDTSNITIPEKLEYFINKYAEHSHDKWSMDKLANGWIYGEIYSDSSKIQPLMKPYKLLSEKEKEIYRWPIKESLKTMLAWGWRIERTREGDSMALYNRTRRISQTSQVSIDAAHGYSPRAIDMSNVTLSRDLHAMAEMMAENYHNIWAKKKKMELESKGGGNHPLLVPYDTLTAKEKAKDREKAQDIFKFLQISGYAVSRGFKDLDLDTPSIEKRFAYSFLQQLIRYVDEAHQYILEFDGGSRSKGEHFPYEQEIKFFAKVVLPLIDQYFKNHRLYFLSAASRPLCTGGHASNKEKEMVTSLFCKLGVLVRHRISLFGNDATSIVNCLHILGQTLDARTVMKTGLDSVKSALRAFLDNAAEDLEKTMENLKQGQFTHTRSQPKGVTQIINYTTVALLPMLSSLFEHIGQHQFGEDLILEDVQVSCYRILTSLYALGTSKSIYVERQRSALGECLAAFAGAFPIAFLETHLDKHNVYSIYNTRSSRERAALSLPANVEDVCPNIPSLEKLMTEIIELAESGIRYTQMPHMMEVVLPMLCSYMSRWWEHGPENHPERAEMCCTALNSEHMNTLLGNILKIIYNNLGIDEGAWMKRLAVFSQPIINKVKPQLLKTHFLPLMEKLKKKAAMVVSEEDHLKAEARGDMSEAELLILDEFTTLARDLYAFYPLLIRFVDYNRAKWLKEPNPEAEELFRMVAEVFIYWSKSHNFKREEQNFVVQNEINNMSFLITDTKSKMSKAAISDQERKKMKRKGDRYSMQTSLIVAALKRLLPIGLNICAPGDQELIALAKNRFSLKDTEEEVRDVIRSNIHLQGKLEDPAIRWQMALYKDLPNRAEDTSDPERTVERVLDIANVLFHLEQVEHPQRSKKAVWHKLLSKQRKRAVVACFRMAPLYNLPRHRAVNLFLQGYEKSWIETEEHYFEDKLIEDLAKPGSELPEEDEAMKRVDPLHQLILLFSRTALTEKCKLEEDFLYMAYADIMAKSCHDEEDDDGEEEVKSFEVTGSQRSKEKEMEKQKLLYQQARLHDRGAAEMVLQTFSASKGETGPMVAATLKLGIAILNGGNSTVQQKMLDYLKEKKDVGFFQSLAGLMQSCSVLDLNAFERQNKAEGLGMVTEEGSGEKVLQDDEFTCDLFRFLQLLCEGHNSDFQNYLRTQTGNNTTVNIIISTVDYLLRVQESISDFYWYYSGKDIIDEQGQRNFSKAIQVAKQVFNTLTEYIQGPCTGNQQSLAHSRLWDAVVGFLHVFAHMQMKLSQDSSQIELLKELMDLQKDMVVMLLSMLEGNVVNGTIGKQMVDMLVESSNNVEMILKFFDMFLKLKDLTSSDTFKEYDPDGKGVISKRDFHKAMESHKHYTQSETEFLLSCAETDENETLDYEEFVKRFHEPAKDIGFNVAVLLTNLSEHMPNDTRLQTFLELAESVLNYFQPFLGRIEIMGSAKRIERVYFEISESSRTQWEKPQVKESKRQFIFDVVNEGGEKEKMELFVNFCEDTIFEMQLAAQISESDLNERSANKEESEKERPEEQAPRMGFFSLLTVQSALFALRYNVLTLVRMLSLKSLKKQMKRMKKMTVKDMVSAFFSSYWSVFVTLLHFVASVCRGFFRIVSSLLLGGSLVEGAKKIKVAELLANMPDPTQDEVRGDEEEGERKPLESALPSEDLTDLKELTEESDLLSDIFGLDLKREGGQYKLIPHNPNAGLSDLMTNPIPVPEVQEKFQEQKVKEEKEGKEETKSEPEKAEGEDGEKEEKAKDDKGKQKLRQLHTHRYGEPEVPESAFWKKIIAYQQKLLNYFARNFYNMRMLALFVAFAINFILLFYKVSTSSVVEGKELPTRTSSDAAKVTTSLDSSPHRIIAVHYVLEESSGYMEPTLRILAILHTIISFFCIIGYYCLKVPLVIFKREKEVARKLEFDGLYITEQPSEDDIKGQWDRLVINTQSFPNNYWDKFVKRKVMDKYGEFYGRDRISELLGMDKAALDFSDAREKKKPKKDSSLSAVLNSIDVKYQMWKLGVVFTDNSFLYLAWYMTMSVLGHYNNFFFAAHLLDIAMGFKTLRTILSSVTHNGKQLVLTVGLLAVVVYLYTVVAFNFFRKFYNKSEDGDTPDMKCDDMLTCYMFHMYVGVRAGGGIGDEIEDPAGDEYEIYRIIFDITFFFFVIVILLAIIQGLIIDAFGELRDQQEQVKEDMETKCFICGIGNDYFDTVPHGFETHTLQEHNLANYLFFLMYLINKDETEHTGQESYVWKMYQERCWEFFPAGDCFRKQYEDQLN

reduction of maximal HF647-DPc10 binding (Bmax) ([3]; 1 μmol/L dantrolene) | Molecule | Tau [Ca]i decline [1] | Δ [Ca]i twitch (ΔF/F0) [1] | CaSpF compared with control ([2]; 50 μM/L H2O2, after 1 Hz stimulation) | Ca2+ spark Amplitude (ΔF/F0) [2] | Ca2+ spark FDHM [2] | Ca2+ spark FWHM [2] | SR Ca2+ content ([2]; intact myocytes) | effect on HF647-DPc10 wash-out kinetics [3] | effect on H2O2-induced increase in frequency of Ca2+ sparks ([2]; dantrolene added before H2O2) | effect on control myocytes (Ca2+ sparks and SCW) ([2]; no H2O2) | acceleration of F-DPc10 association, by a factor of ([3]; after presaturating RyR2 with NF-DPc10, then washout with F-DPc10 present) | increase of kon of F-DPc10 ([3]; prebinding of NF-DPc10 to RyR2) | increase in kon of F-DPc10 ([3]; pretreatment with NF-DPc10)
– | OO [H2O2, hydrogen peroxide] | 0.32 ± 0.01 s | 2.56 ± 0.19 ΔF/F0 | significantly increased | 0.57 ± 0.01 ΔF/F0 | 67.05 ± 3.25 ms | 2.04 ± 0.07 μm | did not significantly alter | – | – | – | – | – | –
74% | O=C1CN(/N=C/c2ccc(-c3ccc([N+](=O)[O-])cc3)o2)C(O)=N1 [dantrolene] | 0.31 ± 0.01 s | 2.35 ± 0.16 ΔF/F0 | – | 0.55 ± 0.01 ΔF/F0 | 61.98 ± 3.35 ms | 1.93 ± 0.09 μm | – | had no effect | suppressed | had no effect | – | – | –
– | GFCPDHKAAMVLFLDRVYGIEVQDFLLHLLEVGFLP [DPc10] | – | – | – | – | – | – | – | accelerate | – | – | ≈ 2 | 3.2 fold | ≈ 320%
